Data published in patent publication US4536396A, “Synergistic sweetening compositions” (Pfizer Inc., priority 1983, dated 1985).

Tests used:
[1] = Taste quality and sweetening potency in typically prepared edible products (Table III)
Description: The ultimate compositions for edible use, or for use as oral hygienic products or as formulated medicinal agents, are readily prepared, using methods generally known in the food technology and pharmaceutical arts. The taste quality of such typically prepared edible products prepared with sucrose, with AS-K alone and with one of present combinations as sweetening agent are summarized in Table III.

[2] = Sensory analysis of relative sweetness intensity and taste quality of aqueous solutions compared with sucrose solutions
Experimental: The relative sweetness intensity and quality of CP-54,802, AS-K and mixtures of CP-54,802 and AS-K were determined by sensory analysis. These determinations were carried out in a facility designed for controlled tasting, flavor research and evaluation of food additives, including a separate preparation room and individual tasting booths with complete air-conditioning, controlled lighting, running water and a sink for expectoration.
Aqueous solutions of sucrose were prepared at concentrations (w/w) of 2, 3, 4, 5, 6, 7, 8, 9, 10, 11 and 12% along with a sample of one of the test compounds at the levels specified in the test experiments. A beaker containing a solution of the test compound identified only by a coded digit was submitted to the taster by a co-worker along with a beaker containing the above sucrose solutions. The sweetness intensity of the test compound was compared with one or more of the sucrose control solutions to determine whether that particular sucrose reference sample was of lesser, greater or equal sweetness. The taste quality of the test sample was then characterized by comparison with the sucrose solution. In some instances a reference aqueous solution containing either CP-54,802 and/or AS-K alone was also used to characterize the taste quality of mixture of CP-54,802 and AS-K.
After selecting the particular sucrose solution equal in sweetness to the AS-K solution, subsequent test comparisons of the AS-K and sucrose solution at closest sweetness intensity were performed to recheck the intensity value and to characterize the taste quality of the AS-K. By this means, the following results were obtained: […]

[3] = cited from earlier work
[4] = at 2% sucrose equivalent in water
[5] = at 3% sucrose equivalent in water
[6] = at 4% sucrose equivalent in water
[7] = at 5% sucrose equivalent in water
[8] = at 6% sucrose equivalent in water
[9] = at 7% sucrose equivalent in water, AS-K values above 6% only approximate
[10] = at 8% sucrose equivalent in water, AS-K values above 6% only approximate
[11] = at 9% sucrose equivalent in water, AS-K values above 6% only approximate
[12] = at 10% sucrose equivalent in water, AS-K values above 6% only approximate
[13] = equal in sweetness to 2% sucrose (w/w) in water
[14] = equal in sweetness to 3% sucrose (w/w) in water
[15] = equal in sweetness to 4% sucrose (w/w) in water
[16] = equal in sweetness to 5% sucrose (w/w) in water
[17] = equal in sweetness to 6% sucrose (w/w) in water
[18] = equal in sweetness to 7% sucrose (w/w) in water
[19] = equal in sweetness to 8% sucrose (w/w) in water
[20] = equal in sweetness to 9% sucrose (w/w) in water
[21] = equal in sweetness to 10% sucrose (w/w) in water
[22] = compared to 10% sucrose in water

Row | Structure (SMILES) | Potency of Sweetening Agent in Product ([1]; 7-Up-type carbonated drink) | Potency of Sweetening Agent in Product ([1]; Cola carbonated drink) | Potency of Sweetening Agent in Product ([1]; Lemonade drink) | Potency of Sweetening Agent in Product ([1]; Orange gelatin dessert) | Potency of Sweetening Agent in Product ([1]; Peppermint hard candy) | Potency of Sweetening Agent in Product ([1]; Strawberry drink) | Potency of Sweetening Agent in Product ([1]; Vanilla cakes) | Potency of Sweetening Agent in Product ([1]; Vanilla frozen dessert) | Potency of Sweetening Agent in Product ([1]; Vanilla pudding) | Potency Sucrose = 1 [2, 4] | Potency Sucrose = 1 [2, 5] | Potency Sucrose = 1 [2, 6] | Potency Sucrose = 1 [2, 7] | Potency Sucrose = 1 [2, 8] | Potency Sucrose = 1 [2, 9] | Potency Sucrose = 1 [2, 10] | Potency Sucrose = 1 [2, 11] | Potency Sucrose = 1 [2, 12] | Equivalent Concentration % [2, 13] | Equivalent Concentration % [2, 14] | further results
1 | OC[C@H]1O[C@@](CO)(O[C@H]2O[C@H](CO)[C@@H](O)[C@H](O)[C@H]2O)[C@@H](O)[C@@H]1O [Sucrose, reference compound] | 1 | 1 | 1 | 1 | 1 | 1 | 1 | 1 | 1 |  |  |  |  |  |  |  |  |  |  |  | 
2 | C[C@@H](NC(=O)[C@@H](N)CC(=O)O)C(=O)NC1C(C)(C)SC1(C)C [CP-54,802, 3-(L-Aspartyl-D-alaninamido)-2,2,4,4-tetramethylthietane] |  |  |  |  |  |  |  |  |  | 2,900 Sucrose = 1 | 2,850 Sucrose = 1 | 2,800 Sucrose = 1 | 2,500 Sucrose = 1 | 2,300 Sucrose = 1 | 2,250 Sucrose = 1 | 2,112 Sucrose = 1 | 2,075 Sucrose = 1 | 2,000 Sucrose = 1 | 0.00069% | 0.00105% | Equivalent Concentration % [2, 15]: 0.00143%; Equivalent Concentration % [2, 16]: 0.002%; Equivalent Concentration % [2, 17]: 0.0026%; Equivalent Concentration % [2, 18]: 0.0031%; Equivalent Concentration % [2, 19]: 0.00378%; Equivalent Concentration % [2, 20]: 0.0043%; Equivalent Concentration % [2, 21]: 0.005%
3 | CC1=CC(=O)NS(=O)(=O)O1 [AS-K, 6-Methyl-1,2,3-oxathiazin-4(3H)-one-2,2-dioxide] | < 90 | 90 | < 90 | < 90 | < 90 | < 90 | 90 | < 90 | < 90 | 250 Sucrose = 1 | 200 Sucrose = 1 | 160 Sucrose = 1 | 110 Sucrose = 1 | 90 Sucrose = 1 | 90 Sucrose = 1 | 90 Sucrose = 1 | 85 Sucrose = 1 | 80 Sucrose = 1 | 0.0080% | 0.0150% | Sweetness relative to cane sugar ([3]; in water at concentrations equivalent in sweetness to a 4% solution of cane sugar): 130; Concentration equivalent to 4% cane sugar ([3]; in water): 0.031%; Relative sweetness ([2]; at concentrations equivalent to 6-10% sucrose): ≤ 90; Concentration (g/100 ml) ≡ 10% Sucrose [2, 22]: 0.1250 g/100 ml; Potency of Mixture [2, 22]: 80; Equivalent Concentration % [2, 15]: 0.0250%; Equivalent Concentration % [2, 16]: 0.0455%; Equivalent Concentration % [2, 17]: 0.0667%; Equivalent Concentration % [2, 18]: 0.0777%; Equivalent Concentration % [2, 19]: 0.0889%; Equivalent Concentration % [2, 20]: 0.1059%; Equivalent Concentration % [2, 21]: 0.1250%
